Data set [1] concerns the target Leucine-rich repeat serine/threonine-protein kinase 2 (Homo sapiens, UniProt Q5S007).
Description: Inhibition of GST-tagged human recombinant wild type LRRK2 using fluorescein- ERM as substrate after 1 hr by TR-FRET assay
Data set [2] in a line: in vivo. To be noted: rat, iv, 2 mg/kg.
Description: Half life in rat at 2 mg/kg, iv
The nature of data set [3]: in vivo. To be noted: rat, plasma, iv, 2 mg/kg.
Data set [4] is described as follows: in vivo. To be noted: rat, po, 10 mg/kg.
A short description of another data set: in vitro. To be noted: rat, in vivo.
Data set [5] can be described thus: in vivo. To be noted: rat, cerebrospinal fluid, ip, 5 mg/kg.
Description: Drug uptake in CSF in rat at 5 mg/kg, ip after 1 hr
Data set [6] is described as follows: in vivo. To be noted: rat, po, 10 mg/kg. This is another data set of the same source.
Data set [7] in a line: in vivo. To be noted: rat, plasma, ip, 5 mg/kg.
Description: Plasma concentration in rat at 5 mg/kg, ip after 1 hr
The nature of data set [8]: in vivo. To be noted: rat, po, 10 mg/kg. This is another data set of the same source.
The nature of data set [9]: Protein binding in rat plasma. The class given is ADME, cell-free. To be noted: read-out: PPB (converted).

Here are results for 44 compounds from ChEMBL document CHEMBL3797078, “Potent, selective and orally bioavailable leucine-rich repeat kinase 2 (LRRK2) inhibitors” (Bioorg Med Chem Lett, 2016).

Sequence of Leucine-rich repeat serine/threonine-protein kinase 2 (Q5S007 whole entry): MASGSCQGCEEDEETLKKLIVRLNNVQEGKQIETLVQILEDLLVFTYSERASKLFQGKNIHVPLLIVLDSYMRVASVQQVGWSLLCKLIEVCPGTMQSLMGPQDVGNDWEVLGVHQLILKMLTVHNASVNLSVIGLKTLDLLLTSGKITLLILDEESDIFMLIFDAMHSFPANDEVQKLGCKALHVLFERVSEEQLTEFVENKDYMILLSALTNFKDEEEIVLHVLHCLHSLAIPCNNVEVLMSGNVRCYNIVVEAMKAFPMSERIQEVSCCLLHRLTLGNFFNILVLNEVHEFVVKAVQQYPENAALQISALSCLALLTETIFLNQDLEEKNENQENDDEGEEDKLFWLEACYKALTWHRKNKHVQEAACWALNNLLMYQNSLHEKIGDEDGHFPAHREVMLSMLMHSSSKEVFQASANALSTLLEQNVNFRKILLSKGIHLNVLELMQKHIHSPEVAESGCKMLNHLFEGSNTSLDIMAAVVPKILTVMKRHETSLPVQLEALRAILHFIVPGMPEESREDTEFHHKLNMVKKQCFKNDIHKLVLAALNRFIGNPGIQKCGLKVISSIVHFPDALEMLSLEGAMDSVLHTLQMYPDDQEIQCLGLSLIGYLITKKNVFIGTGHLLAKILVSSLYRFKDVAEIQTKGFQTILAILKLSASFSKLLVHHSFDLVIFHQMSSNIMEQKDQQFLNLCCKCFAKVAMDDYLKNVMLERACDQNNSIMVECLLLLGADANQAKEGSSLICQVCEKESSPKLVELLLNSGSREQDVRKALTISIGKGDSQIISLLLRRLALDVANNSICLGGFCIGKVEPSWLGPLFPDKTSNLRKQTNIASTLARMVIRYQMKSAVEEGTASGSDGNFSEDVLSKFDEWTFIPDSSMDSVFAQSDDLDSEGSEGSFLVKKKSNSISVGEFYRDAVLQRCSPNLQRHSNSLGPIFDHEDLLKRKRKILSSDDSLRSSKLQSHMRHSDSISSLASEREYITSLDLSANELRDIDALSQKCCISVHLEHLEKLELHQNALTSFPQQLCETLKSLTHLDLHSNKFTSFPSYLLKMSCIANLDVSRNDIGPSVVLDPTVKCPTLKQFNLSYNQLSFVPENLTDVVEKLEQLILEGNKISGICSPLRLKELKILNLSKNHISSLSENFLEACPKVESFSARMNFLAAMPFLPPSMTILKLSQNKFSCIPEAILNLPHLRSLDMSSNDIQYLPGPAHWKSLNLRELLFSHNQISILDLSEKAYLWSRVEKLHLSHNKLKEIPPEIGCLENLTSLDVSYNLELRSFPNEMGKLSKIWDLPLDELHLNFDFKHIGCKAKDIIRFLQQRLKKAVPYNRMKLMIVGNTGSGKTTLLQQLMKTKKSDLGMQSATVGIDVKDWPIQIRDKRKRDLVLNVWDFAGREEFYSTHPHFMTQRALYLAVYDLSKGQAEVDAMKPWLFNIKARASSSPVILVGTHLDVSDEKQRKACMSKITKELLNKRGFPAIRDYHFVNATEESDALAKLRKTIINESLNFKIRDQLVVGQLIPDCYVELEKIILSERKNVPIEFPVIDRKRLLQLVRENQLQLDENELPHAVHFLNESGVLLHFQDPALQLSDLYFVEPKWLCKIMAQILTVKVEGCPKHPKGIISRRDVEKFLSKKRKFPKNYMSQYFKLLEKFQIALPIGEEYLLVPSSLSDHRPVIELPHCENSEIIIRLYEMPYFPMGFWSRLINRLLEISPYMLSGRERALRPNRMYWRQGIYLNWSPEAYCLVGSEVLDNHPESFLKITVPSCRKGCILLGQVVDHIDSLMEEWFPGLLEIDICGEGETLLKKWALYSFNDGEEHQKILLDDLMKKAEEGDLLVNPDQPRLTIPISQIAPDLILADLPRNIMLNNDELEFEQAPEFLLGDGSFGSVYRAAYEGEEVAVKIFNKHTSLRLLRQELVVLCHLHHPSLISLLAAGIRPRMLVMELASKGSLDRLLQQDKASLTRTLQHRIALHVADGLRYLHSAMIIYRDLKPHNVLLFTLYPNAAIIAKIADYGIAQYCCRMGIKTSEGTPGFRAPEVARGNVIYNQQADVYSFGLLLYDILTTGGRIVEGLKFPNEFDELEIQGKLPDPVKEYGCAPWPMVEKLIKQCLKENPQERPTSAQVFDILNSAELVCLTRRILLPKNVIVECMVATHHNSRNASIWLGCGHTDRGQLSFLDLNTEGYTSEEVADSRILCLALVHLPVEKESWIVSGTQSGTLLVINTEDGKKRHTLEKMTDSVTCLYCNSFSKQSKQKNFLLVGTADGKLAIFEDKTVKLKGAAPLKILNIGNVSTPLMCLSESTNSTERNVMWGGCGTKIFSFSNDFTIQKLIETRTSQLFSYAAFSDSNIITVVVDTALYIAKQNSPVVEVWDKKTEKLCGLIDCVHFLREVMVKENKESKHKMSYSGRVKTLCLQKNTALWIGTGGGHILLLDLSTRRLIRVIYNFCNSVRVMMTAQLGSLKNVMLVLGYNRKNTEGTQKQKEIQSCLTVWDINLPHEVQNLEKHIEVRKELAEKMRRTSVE
Description for in vitro: Intrinsic clearance in rat

For `CC(C)Sc1sc(-c2cc[nH]n2)c2c1C(=O)CC(C)(C)C2`, the Ki – broadly, the equilibrium dissociation constant of an inhibitor or competing ligand from its target – in [1] turned out to be 256 nM.

As for `CSc1sc(-c2cc[nH]n2)c2c1C(=O)NC[C@@H]2C`, the affinity in [1], expressed as Ki, was 319 nM. The same measure, in the same setting: the same measure for `CC1(C)CC(=O)c2c(SCc3ccccc3)sc(-c3cc[nH]n3)c2C1`: > 10000 nM.

On to `CC[C@H]1CNC(=O)c2c(SCC3CC3)sc(-c3cc[nH]n3)c21`, for which, in [1], the Ki turned out to be 58 nM. The same measure, in the same setting: the value for `CC1(C)CC(=O)c2c(NC3CCCC3)sc(-c3cc[nH]n3)c2C1` was 2790 nM. As to `CCCSc1sc(-c2cc[nH]n2)c2c1C(=O)NC[C@@H]2C`, the half-life (commonly the time in which the quantity being followed falls by half) in “in vivo [2]” is 3.6 h. Moreover, the clearance (usually a measure of how efficiently the substance is removed, as volume per time) in the data set “in vivo [3]” is 11.9 mL/min/kg. Besides, in the data set “in vivo [4]”, the peak level (Cmax) was 16000 nM. This compound also yielded a Ki in data set [1] of 84 nM. Further, the CLint scaled (commonly the capacity of the preparation to metabolise the compound, expressed as a volume cleared per time) in “in vitro” amounted to 1200 mL/min/kg. Further, the concentration at 1 h amounted to 150 nM in the data set “in vivo [5]” and 24400 nM in “in vivo [7]”. In addition, the AUC – broadly, the area under the concentration-time curve, a measure of exposure – in “in vivo [6]” stood at 46.1 µM·h. For the same compound, the bioavailability (commonly the share of a dose that reaches the circulation, judged against a reference dose that is usually intravenous) in “in vivo [8]” is 98%.

`CSc1sc(-c2cc[nH]n2)c2c1C(=O)NC(C)C2` (racemic) yielded a Ki in [1] of 1240 nM. Same read-out and setting: the same measure for `CSc1sc(-c2cc[nH]n2)c2c1C(=O)NC(C(F)(F)F)C2` (racemic): 501 nM. On the same count and under the same terms, the same measure for `CC1(C)CC(=O)c2c(S(C)(=O)=O)sc(-c3cc[nH]n3)c2C1`: 7130 nM. In data set [1], `CSc1sc(-c2cc[nH]n2)c2c1C(=O)NC1(CCC1)C2` came in with a Ki of 233 nM. Compared with the last compound, the Ki is about 31-fold lower. Same read-out and setting: the value for `CSc1sc(-c2cc[nH]n2)c2c1C(=O)NC[C@H]2C` was 603 nM. Compound `CSc1sc(-c2cc[nH]n2)c2c1C(=O)NCC2` had a half-life in the data set “in vivo [2]” of 1.4 h. In addition, the clearance in “in vivo [3]” was 47.5 mL/min/kg. In the data set “in vivo [4]”, the maximum concentration (Cmax) (as a rule, the peak of the concentration-time curve) turned out to be 4800 nM. This compound also yielded an inhibition constant Ki in [1] of 3410 nM. The compound also displayed a CLint scaled in the data set “in vitro” of 1300 mL/min/kg. Also, the results for the concentration at 1 h in the data set “in vivo [5]” and in “in vivo [7]” were 500 nM and 28300 nM, respectively. For the same compound, the AUC in the data set “in vivo [6]” amounted to 14 µM·h. This compound yielded a bioavailability in the data set “in vivo [8]” of 70%.

Compound `CSc1sc(-c2cc[nH]n2)c2c1C(=O)NC[C@H]2Cc1ccccc1` returned a Ki in data set [1] of 342 nM. Compound `CSc1sc(-c2cc[nH]n2)c2c1C(=O)NC(c1ccc(F)cc1)C2` (racemic) gave a Ki in data set [1] of 271 nM. Turning to `O=C1NCCc2c(-c3cc[nH]n3)sc(Sc3ccccc3)c21`, the Ki in [1] was 4460 nM.

`CC(C)Sc1sc(-c2cc[nH]n2)c2c1C(=O)NCC2` yielded a Ki in data set [1] of 988 nM. Same read-out and setting: the same measure for `CSc1sc(-c2cc[nH]n2)c2c1C(=O)NC1(CC1)C2`: > 10000 nM. Same read-out and setting: the value for `CCCc1sc(-c2cc[nH]n2)c2c1C(=O)CC(C)(C)C2` was 5290 nM; that for `CSc1sc(-c2cc[nH]n2)c2c1C(=O)CC(C)(C)C2` was 377 nM; that for `CSc1sc(-c2cc[nH]n2)c2c1C(=O)NC1(CCCC1)C2` was 411 nM. On to `CSc1sc(-c2cc[nH]n2)c2c1C(=O)NC(C1CCC1)C2` (racemic), for which the Ki in data set [1] was 1050 nM. For `CSc1sc(-c2cc[nH]n2)c2c1C(=O)N[C@H](c1cccnc1)C2`, the Ki in [1] is > 10000 nM. In [1], `CSc1sc(-c2cc[nH]n2)c2c1C(=O)N(c1ccccc1)CC2` came in with a Ki of 4710 nM. In turn, `O=C1NCCc2c(-c3cc[nH]n3)sc(SC3CC3)c21` yielded a Ki in data set [1] of 614 nM. On the same count and under the same terms, the same measure for `CC1(C)CC(=O)c2c(SCC3CC3)sc(-c3cc[nH]n3)c2C1`: 172 nM; for `O=C1CCCc2c(-c3cc[nH]n3)sc(NC3CCCC3)c21`: > 10000 nM. In the case of `CC1(C)CC(=O)c2c(SC3CCCC3)sc(-c3cc[nH]n3)c2C1`, the fraction unbound in data set [9] was 0.007. Besides, the half-life in the data set “in vivo [2]” is 1.2 h. The clearance in “in vivo [3]” came to 95.5 mL/min/kg. The compound further returned a Cmax in “in vivo [4]” of 120 nM. For the same compound, the Ki in data set [1] is 389 nM. Besides, the concentration at 1 h in the data set “in vivo [5]” stood at 10 nM; in “in vivo [7]”, 970 nM. Besides, in the data set “in vivo [6]”, the AUC was 0.01 µM·h. Besides, the bioavailability in “in vivo [8]” stood at 0.2%.

In turn, `O=C1NCCc2c(-c3cc[nH]n3)sc(SC3CCCCC3)c21` displayed an inhibition constant (Ki) in [1] of 919 nM. `CCSc1sc(-c2cc[nH]n2)c2c1C(=O)NCC2` returned a Ki in data set [1] of 589 nM. Compared with the last compound, the Ki is about 1.6-fold lower. Still for that read-out and setting: the value for `CSc1sc(-c2cc[nH]n2)c2c1C(=O)NC(Cc1ccccc1)C2` (racemic) was 928 nM; that for `CC1(C)CC(=O)c2c(OC3CCCC3)sc(-c3cc[nH]n3)c2C1` was 475 nM. Still for that read-out and setting: the value for `CCCSc1sc(-c2cc[nH]n2)c2c1C(=O)NCC2` was 572 nM; that for `CCCSc1sc(-c2cc[nH]n2)c2c1C(=O)NC[C@@H]2CC` was 68 nM; that for `CCSc1sc(-c2cc[nH]n2)c2c1C(=O)CC(C)(C)C2` was 156 nM. Same read-out and setting: the same measure for `CSc1sc(-c2cc[nH]n2)c2c1C(=O)N(C)CC2`: 5570 nM; for `CSc1sc(-c2ccn(C)n2)c2c1C(=O)CC(C)(C)C2`: 5580 nM. In the case of `O=C1CCCc2c(-c3cc[nH]n3)sc(SC3CCCC3)c21`, in data set [1], affinity was put at a Ki of 295 nM. Compared with the last compound, the Ki is about 19-fold lower.

Consider `CC1(C)CC(=O)c2c(SCCO)sc(-c3cc[nH]n3)c2C1`, for which affinity in data set [1] was put at a Ki of 515 nM. This Ki lies about 1.7-fold higher than the previous one. `O=C1NCCc2c(-c3cc[nH]n3)sc(SC3CCCC3)c21`: the affinity in data set [1], expressed as Ki, was 459 nM.

In data set [1], `C[C@H]1CNC(=O)c2c(SCC3CC3)sc(-c3cc[nH]n3)c21` had a Ki of 83 nM. Compared with the last compound, the Ki is about 5.5-fold lower. Turning to `CSc1sc(-c2cc[nH]n2)c2c1C(=O)CCC2`, the half-life in the data set “in vivo [2]” was 6.5 h. The compound further showed a clearance in the data set “in vivo [3]” of 56 mL/min/kg. This compound also yielded a Cmax in “in vivo [4]” of 1600 nM. The compound also returned an inhibition constant Ki in [1] of 312 nM. Moreover, in “in vitro”, the CLint scaled stood at 6500 mL/min/kg. Besides, the concentration at 1 h in the data set “in vivo [5]” came out at 50 nM; in “in vivo [7]” it was 2330 nM. In addition, in the data set “in vivo [6]”, the AUC was found to be 3.8 µM·h. The same compound came in with a bioavailability in the data set “in vivo [8]” of 33%.

As for `Cc1nnc(Sc2sc(-c3cc[nH]n3)c3c2C(=O)CC(C)(C)C3)s1`, affinity in [1] was put at a Ki of 993 nM. On the same count and under the same terms, the value for `CC1(C)CC(=O)c2c(SCCc3ccccc3)sc(-c3cc[nH]n3)c2C1` was 1890 nM; that for `CSc1sc(-c2cc[nH]n2)c2c1C(=O)NC(c1cccc(F)c1)C2` (racemic) was 3290 nM.
